Results as given in patent US10752613B2, “Compounds and their use for reducing uric acid levels” (Acquist LLC, priority 2016, dated 2020).
Entries after “also recorded” stand apart in the source; their conditions may differ.

Biological target: xanthine oxidase (Homo sapiens (Human), UniProt P47989)
Assay: Fluorescence-based xanthine oxidase activity assay
Type: biochemical
Settings: for IC50: fluorescence-based assay, triplicate, 10 concentrations; for Xanthine oxidase inhibition compared with allopurinol: comparison in words

Chain of xanthine oxidase (P47989 whole entry, species assumed): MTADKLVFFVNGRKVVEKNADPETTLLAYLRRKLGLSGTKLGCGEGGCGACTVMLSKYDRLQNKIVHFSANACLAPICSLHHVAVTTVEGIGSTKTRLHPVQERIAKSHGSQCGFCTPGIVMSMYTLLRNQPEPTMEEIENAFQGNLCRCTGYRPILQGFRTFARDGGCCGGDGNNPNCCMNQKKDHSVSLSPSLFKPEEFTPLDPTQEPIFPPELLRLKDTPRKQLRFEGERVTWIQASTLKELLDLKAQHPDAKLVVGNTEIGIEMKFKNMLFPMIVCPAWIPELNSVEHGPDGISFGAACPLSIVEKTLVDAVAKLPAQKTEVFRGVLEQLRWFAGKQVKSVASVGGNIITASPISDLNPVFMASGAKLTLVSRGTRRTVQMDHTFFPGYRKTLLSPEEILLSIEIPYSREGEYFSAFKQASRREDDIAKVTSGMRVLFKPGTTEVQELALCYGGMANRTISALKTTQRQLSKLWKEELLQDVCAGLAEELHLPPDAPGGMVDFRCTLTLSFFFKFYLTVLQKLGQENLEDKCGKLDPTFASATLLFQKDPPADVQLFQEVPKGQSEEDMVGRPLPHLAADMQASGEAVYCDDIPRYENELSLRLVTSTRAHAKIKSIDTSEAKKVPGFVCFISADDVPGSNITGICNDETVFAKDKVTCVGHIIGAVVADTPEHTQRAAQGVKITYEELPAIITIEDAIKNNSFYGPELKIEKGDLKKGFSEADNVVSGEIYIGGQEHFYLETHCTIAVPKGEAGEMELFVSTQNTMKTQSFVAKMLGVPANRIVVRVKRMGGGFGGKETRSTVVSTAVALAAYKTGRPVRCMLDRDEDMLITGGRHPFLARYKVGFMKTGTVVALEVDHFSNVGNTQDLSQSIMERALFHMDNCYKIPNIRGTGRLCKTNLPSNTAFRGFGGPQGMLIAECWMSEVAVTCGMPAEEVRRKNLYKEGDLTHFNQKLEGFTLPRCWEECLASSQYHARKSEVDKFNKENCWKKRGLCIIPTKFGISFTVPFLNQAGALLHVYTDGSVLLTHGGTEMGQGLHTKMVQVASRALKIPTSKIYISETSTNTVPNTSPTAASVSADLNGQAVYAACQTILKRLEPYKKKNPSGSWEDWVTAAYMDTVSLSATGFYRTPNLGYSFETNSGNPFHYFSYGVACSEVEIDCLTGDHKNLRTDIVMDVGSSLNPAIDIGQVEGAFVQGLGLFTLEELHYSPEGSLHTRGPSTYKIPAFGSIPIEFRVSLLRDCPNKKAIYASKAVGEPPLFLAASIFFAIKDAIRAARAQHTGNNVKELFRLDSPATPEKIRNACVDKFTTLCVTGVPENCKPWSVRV

Structure (SMILES)	IC50 [µM]	Xanthine oxidase inhibition compared with allopurinol
O=C(Nc1cccc(-c2cn[nH]n2)c1)c1c(O)[nH]c(=O)[nH]c1=O [Formula (Ia), N-(3-(1H-1,2,3-triazol-5-yl)phenyl)-6-hydroxy-2,4-dioxo-1,2,3,4-tetrahydropyrimidine-5-carboxamide]	6.5	
O=C(Nc1ccc(-c2nn[nH]c2-c2ccccc2)cc1)c1c(O)[nH]c(=O)[nH]c1=O [Formula (Ic), 6-hydroxy-2,4-dioxo-N-(4-(4-phenyl-1H-1,2,3-triazol-5-yl)phenyl)-1,2,3,4-tetrahydropyrimidine-5-carboxamide]	12.2	
O=C(Nc1ccc(-c2nc(C(F)(F)F)n[nH]2)cc1)c1c(O)[nH]c(=O)[nH]c1=O [Formula (Ie), 6-hydroxy-2,4-dioxo-N-(4-(3-(trifluoromethyl)-1H-1,2,4-triazol-5-yl)phenyl)-1,2,3,4-tetrahydropyrimidine-5-carboxamide]	14.5	
O=C(Nc1ccc(-c2cn[nH]c2)cc1)c1c(O)[nH]c(=O)[nH]c1=O [Formula (If), N-(4-(1H-pyrazol-4-yl)phenyl)-6-hydroxy-2,4-dioxo-1,2,3,4-tetrahydropyrimidine-5-carboxamide]	70.1	
O=C(Nc1ccc(-c2c[nH]nn2)c(C(F)(F)F)c1)c1c(O)[nH]c(=O)[nH]c1=O [Formula (Ig), N-(4-(1H-1,2,3-triazol-5-yl)-3-(trifluoromethyl)phenyl)-6-hydroxy-2,4-dioxo-1,2,3,4-tetrahydropyrimidine-5-carboxamide]	2.2	comparable to allopurinol
O=C(Nc1ccc(-c2c[nH]nn2)cc1C(F)(F)F)c1c(O)[nH]c(=O)[nH]c1=O [Formula (Ih), N-(4-(1H-1,2,3-triazol-5-yl)-2-(trifluoromethyl)phenyl)-6-hydroxy-2,4-dioxo-1,2,3,4-tetrahydropyrimidine-5-carboxamide]	1.2	more potent inhibitors of xanthine oxidase than allopurinol; also recorded: comparable to allopurinol
O=C(Nc1ccc(-c2cc(O)n[nH]2)cc1)c1c(O)[nH]c(=O)[nH]c1=O [Formula (Ii), 6-hydroxy-N-(4-(3-hydroxy-1H-pyrazol-5-yl)phenyl)-2,4-dioxo-1,2,3,4-tetrahydropyrimidine-5-carboxamide]	1.3	more potent inhibitors of xanthine oxidase than allopurinol
O=C(Nc1ccc(-c2cn[nH]c2C(F)(F)F)cc1)c1c(O)[nH]c(=O)[nH]c1=O [Formula (Ij), 6-hydroxy-2,4-dioxo-N-(4-(5-(trifluoromethyl)-1H-pyrazol-4-yl)phenyl)-1,2,3,4-tetrahydropyrimidine-5-carboxamide]	16.3	
O=C(Nc1ccc(-n2cc(C(F)(F)F)cn2)cc1)c1c(O)[nH]c(=O)[nH]c1=O [Formula (Ik), 6-hydroxy-2,4-dioxo-N-(4-(4-(trifluoromethyl)-1H-pyrazol-1-yl)phenyl)-1,2,3,4-tetrahydropyrimidine-5-carboxamide]	68	
O=C(Nc1ccc(-c2cc(C(F)(F)F)n[nH]2)cc1)c1c(O)[nH]c(=O)[nH]c1=O [Formula (Il), 6-hydroxy-2,4-dioxo-N-(4-(3-(trifluoromethyl)-1H-pyrazol-5-yl)phenyl)-1,2,3,4-tetrahydropyrimidine-5-carboxamide]	67.9	
O=C(Nc1ccc(-c2[nH]ncc2C(F)(F)F)cc1)c1c(O)[nH]c(=O)[nH]c1=O [Formula (Im), 6-hydroxy-2,4-dioxo-N-(4-(4-(trifluoromethyl)-1H-pyrazol-5-yl)phenyl)-1,2,3,4-tetrahydropyrimidine-5-carboxamide]	25.2	
